# According to US11332459B2 (TEIJIN PHARMA LIMITED, priority 2017, dated 2022):
# Where a name gives a salt, the structure may show the parent alone.
# Biological target: T1, human TRPC6 (Homo sapiens, UniProt Q9Y210)
# T1 construct: expressed in transfected cells
# T1 sequence (Q9Y210 1-931): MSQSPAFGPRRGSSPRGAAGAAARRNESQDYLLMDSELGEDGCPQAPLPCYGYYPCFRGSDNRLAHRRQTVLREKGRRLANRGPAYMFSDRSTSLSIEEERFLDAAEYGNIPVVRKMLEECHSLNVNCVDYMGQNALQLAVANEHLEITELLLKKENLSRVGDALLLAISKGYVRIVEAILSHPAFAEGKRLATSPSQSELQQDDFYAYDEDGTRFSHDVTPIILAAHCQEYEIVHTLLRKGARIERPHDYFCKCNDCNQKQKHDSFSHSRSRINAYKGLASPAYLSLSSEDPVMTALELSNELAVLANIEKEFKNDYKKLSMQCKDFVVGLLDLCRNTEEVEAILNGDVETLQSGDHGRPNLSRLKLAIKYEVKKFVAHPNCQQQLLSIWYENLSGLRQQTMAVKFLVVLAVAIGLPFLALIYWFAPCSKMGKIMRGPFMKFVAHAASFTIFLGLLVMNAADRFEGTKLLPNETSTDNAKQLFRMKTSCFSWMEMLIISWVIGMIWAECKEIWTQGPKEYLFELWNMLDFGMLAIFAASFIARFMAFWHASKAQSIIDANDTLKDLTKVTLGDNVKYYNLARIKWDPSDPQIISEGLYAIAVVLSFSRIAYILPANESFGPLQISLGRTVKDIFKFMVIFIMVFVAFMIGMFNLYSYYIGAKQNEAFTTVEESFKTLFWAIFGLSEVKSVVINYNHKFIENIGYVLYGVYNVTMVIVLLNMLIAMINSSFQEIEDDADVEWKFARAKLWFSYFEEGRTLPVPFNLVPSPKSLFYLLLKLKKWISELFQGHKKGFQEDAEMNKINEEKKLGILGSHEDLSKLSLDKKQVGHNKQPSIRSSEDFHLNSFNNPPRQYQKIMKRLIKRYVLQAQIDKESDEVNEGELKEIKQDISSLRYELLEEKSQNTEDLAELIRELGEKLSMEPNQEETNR
# Assay: TRPC6 calcium flux assay (FLIPR, OAG-stimulated calcium influx)
# Assay type: cell-based
# Details: HEK293 cells stably transfected with human TRPC6, read-out: hTRPC6 Potency
# Procedure, shortened: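 IC50 derived by plotting background-corrected peak fluorescence (180 s window, normalized to OAG-triggered signal vs buffer) against dose. Stable human TRPC6 HEK293 line was dye-loaded, exposed to compound 25 min, then challenged with 50 uM final OAG in 2 mM Ca2+ HEPES buffer pH 7.2, 0.5% DMSO.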
row,SMILES,IC50
1,"N#CCOc1ccc(Cn2c(N3CCC[C@@H](N)C3)nc3ccccc32)cc1 [Example 384, (R)-2-(4-((2-(3-aminopiperidin-1-yl)-1H-benzo[d]imidazol-1-yl)methyl)phenoxy) acetonitrile]",16 µM
2,"CN(C)S(=O)(=O)c1ccc(Cn2c(N3CCC[C@@H](N)C3)nc3ccccc32)cc1 [Example 385, (R)-4-((2-(3-aminopiperidin-1-yl)-1H-benzo[d]imidazol-1-yl)methyl)-N,N-dimethylbenzenesulfon-amide]",> 50 µM
3,"Cc1ccc(Cn2c(N3CCC[C@@H](N)C3)nc3ccccc32)cc1 [Example 386, (R)-1-(1-(4-methylbenzyl)-1H-benzo[d]imidazol-2-yl)piperidin-3-amine]",4.26 µM
4,"N[C@@H]1CCCN(c2nc3ccccc3n2Cc2ccc(F)cc2)C1 [Example 387, (R)-1-(1-(4-fluorobenzyl)-1H-benzo[d]imidazol-2-yl)piperidin-3-amine]",5.36 µM
5,"N[C@@H]1CCCN(c2nc3ccccc3n2Cc2ccc(F)cc2F)C1 [Example 389, (R)-1-(1-(2,4-difluorobenzyl)-1H-benzo[d]imidazol-2-yl)piperidin-3-amine]",4.58 µM
6,"N[C@@H]1CCCN(c2nc3ccccc3n2Cc2ccc(F)c(F)c2)C1 [Example 390, (R)-1-(1-(3,4-difluorobenzyl)-1H-benzo[d]imidazol-2-yl)piperidin-3-amine]",3.57 µM
7,"N[C@@H]1CCCN(c2nc3ccccc3n2Cc2ccc(Cl)c(F)c2)C1 [Example 391, (R)-1-(1-(4-chloro-3-fluorobenzyl)-1H-benzo[d]imidazol-2-yl)piperidin-3-amine]",1.82 µM
8,"N[C@@H]1CCCN(c2nc3ccccc3n2Cc2cc(-c3cccc(Cl)c3)no2)C1 [Example 392, (R)-1-(1-((3-(3-chlorophenyl)isoxazol-5-yl)methyl)-1H-benzo[d]imidazol-2-yl)piperidin-3-amine]",2.24 µM
9,"COc1ccc(Cn2c(N3CCC[C@@H](N)C3)nc3ccccc32)cc1Cl [Example 393, (R)-1-(1-(3-chloro-4-methoxybenzyl)-1H-benzo[d]imidazol-2-yl)piperidin-3-amine]",5.05 µM
10,"N#Cc1ccc(Cn2c(N3CCC[C@@H](N)C3)nc3ccccc32)c(Cl)c1 [Example 394, (R)-4-((2-(3-aminopiperidin-1-yl)-1H-benzo[d]imidazol-1-yl)methyl)-3-chlorobenzonitrile]",0.732 µM

# Continued, values first:
row,IC50,SMILES
1,1.12 µM,"N[C@@H]1CCCN(c2nc3ccccc3n2Cc2ccc(Cl)cc2Cl)C1 [Example 395, (R)-1-(1-(2,4-dichlorobenzyl)-1H-benzo[d]imidazol-2-yl)piperidin-3-amine]"
2,18.2 µM,"COc1cc(C#N)ccc1Cn1c(N2CCC[C@@H](N)C2)nc2ccccc21 [Example 396, (R)-4-((2-(3-aminopiperidin-1-yl)-1H-benzo[d]imidazol-1-yl)methyl)-3-methoxybenzonitrile]"
3,1.58 µM,"N#Cc1cc(Cl)ccc1Cn1c(N2CCC[C@@H](N)C2)nc2ccccc21 [Example 397, (R)-2-((2-(3-aminopiperidin-1-yl)-1H-benzo[d]imidazol-1-yl)methyl)-5-chlorobenzonitrile]"
4,0.0874 µM,"C[C@H](c1ccc(C#N)cc1)n1c(N2CCC[C@@H](N)C2)nc2ccccc21 [Example 398, 4-((R)-1-(2-((R)-3-aminopiperidin-1-yl)-1H-benzo[d]imidazol-1-yl)ethyl)benzonitrile]"
5,16.5 µM,"N#Cc1cccc(Cn2c(N3CCC[C@@H](N)C3)nc3ccccc32)c1 [Example 400, (R)-3-((2-(3-aminopiperidin-1-yl)-1H-benzo[d]imidazol-1-yl)methyl)benzonitrile]"
6,0.000456 µM,"N#Cc1ccc(Cn2c(N3CC[C@H](F)[C@H](N)C3)nc3ccc(Cl)cc32)cc1 [Example 401, 4-((2-((3R,4S)-3-amino-4-fluoropiperidin-1-yl)-6-chloro-1H-benzo[d]imidazol-1-yl)methyl)benzonitrile hydrochloride]"
